Reference: patent US20240279202A1 (NURIX THERAPEUTICS, INC., priority 2021, published 2024)

Key:
[1] = Mouse PK analysis (blood/plasma concentration after oral administration); format: in vivo; settings: mouse; mice, oral, plasma
Summary of the method: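 Mice were dosed by oral gavage at 90 mg/kg with blood sampled at 1, 2 and 6 h; a second study used oral dosing with plasma taken at 6 or 24 h. Plasma levels were measured by LC/MS/MS (acetonitrile precipitation, internal-standard curve, positive ESI MRM), and Cmax, Tmax and AUClast were derived by noncompartmental analysis.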

ITK = target: T1, ITK (Homo sapiens, UniProt Q08881); experiment: ITK degradation HiBiT assay; format: cell-based; parameters: expressed in transfected cells; host or cells: Molt4 (ATCC CRL-1552), monoclonal clone 1C10, engineered to carry the HiBiT tag; settings: 4 hrs; for DC50: C-terminal HiBiT-tagged Molt4 cells; for Dmax: MOLT-4, C-terminal HiBiT-tagged Molt4 cells
T1 sequence (Q08881 1-620): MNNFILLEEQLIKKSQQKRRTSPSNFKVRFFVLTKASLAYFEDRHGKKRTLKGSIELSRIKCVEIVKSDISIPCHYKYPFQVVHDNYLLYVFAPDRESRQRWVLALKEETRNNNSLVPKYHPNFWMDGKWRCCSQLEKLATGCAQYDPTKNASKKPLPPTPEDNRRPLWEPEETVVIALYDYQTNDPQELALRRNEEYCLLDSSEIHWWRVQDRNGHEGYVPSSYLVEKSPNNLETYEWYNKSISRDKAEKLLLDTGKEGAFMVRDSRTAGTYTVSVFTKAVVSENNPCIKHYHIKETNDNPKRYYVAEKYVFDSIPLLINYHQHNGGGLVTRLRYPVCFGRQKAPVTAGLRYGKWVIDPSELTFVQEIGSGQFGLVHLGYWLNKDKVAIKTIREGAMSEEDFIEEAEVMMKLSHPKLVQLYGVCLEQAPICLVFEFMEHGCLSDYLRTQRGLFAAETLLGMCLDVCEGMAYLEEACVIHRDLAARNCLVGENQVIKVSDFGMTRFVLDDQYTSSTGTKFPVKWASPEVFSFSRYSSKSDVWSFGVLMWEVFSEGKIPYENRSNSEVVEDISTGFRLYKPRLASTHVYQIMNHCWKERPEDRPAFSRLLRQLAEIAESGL
Summary of the method: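 C-terminal HiBiT-tagged Molt4 cells (clone 1C10) treated 4 h at 32° C with an 11-point, 5-fold compound dilution series (0.5% DMSO). HiBiT lytic detection with LgBiT then luminescence read; % ITK remaining versus concentration fit by four-parameter variable-slope model to give DC50 and Dmax.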

Row | Cmax [1] [nM] | Tmax [1] [h] | DC50 (ITK) [nM] | Dmax (ITK) [%] | AUC(0-t) [1] [µM·h] | SMILES
1 | 27 | 2 | 2.4 | 88 |  | C[C@@]12Cc3[nH]nc(C(=O)Nc4cnn(CC5CN(C[C@H]6CCN(c7ccc8c(c7)C(=O)N(C7CCC(=O)NC7=O)C8=O)C6)C5)c4)c3C[C@@H]1C2(F)F (stereo partly drawn) [Compound 44, (4aS,5aR)-N-(1-((1-(((3R)-1-(2-(2,6-dioxopiperidin-3-yl)-1,3-dioxoisoindolin-5-yl)pyrrolidin-3-yl)methyl)azetidin-3-yl)methyl)-1H-pyrazol-4-yl)-5,5-difluoro-5a-methyl-1,4,4a,5,5a,6-hexahydrocyclopropa[f]indazole-3-carboxamide]
2 | 2130 | 4 | 14 | 79 | 9.38 | Cn1c(=O)n([C@H]2CCC(=O)NC2=O)c2cccc(N3CCC(CN4CCN(C(=O)c5ccc6cc(-c7n[nH]c8c7CCC(C)(C)C8)[nH]c6c5)CC4)CC3)c21 [Compound 46, (S)-3-(4-(4-((4-(2-(6,6-dimethyl-4,5,6,7-tetrahydro-1H-indazol-3-yl)-1H-indole-6-carbonyl)piperazin-1-yl)methyl)piperidin-1-yl)-3-methyl-2-oxo-2,3-dihydro-1H-benzo[d]imidazol-1-yl)piperidine-2,6-dione]
3 | 2440 | 6 | 5.2 | 86 | 8.42 | Cn1c(=O)n([C@@H]2CCC(=O)NC2=O)c2cccc(N3CCC(CN4CCN(C(=O)c5ccc6cc(-c7n[nH]c8c7CCC(C)(C)C8)[nH]c6c5)CC4)CC3)c21 [Compound 48, (R)-3-(4-(4-((4-(2-(6,6-dimethyl-4,5,6,7-tetrahydro-1H-indazol-3-yl)-1H-indole-6-carbonyl)piperazin-1-yl)methyl)piperidin-1-yl)-3-methyl-2-oxo-2,3-dihydro-1H-benzo[d]imidazol-1-yl)piperidine-2,6-dione]
4 | 405 | 6 | 0.35 | 80 | 1.38 | C[C@@H](C(=O)N(C)c1ccc2cc(-c3n[nH]c4c3C[C@@H]3C(F)(F)[C@]3(C)C4)[nH]c2c1)N1CCN(CC2CCN(c3cccc4c3n(C)c(=O)n4C3CCC(=O)NC3=O)CC2)CC1 (stereo partly drawn) [Compound 65, (2S)—N-(2-((4aS,5aR)-5,5-difluoro-5a-methyl-1,4,4a,5,5a,6-hexahydrocyclopropa[f]indazol-3-yl)-1H-indol-6-yl)-2-(4-((1-(1-(2,6-dioxopiperidin-3-yl)-3-methyl-2-oxo-2,3-dihydro-1H-benzo[d]imidazol-4-yl)piperidin-4-yl)methyl)piperazin-1-yl)-N-methylpropanamide]
5 | 526 | 4 | 0.55 | 71 | 1.74 | C[C@@H](C(=O)N(C)c1ccc2cc(-c3n[nH]c4c3C[C@@H]3C(F)(F)[C@]3(C)C4)[nH]c2c1)N1CCN(CC2CCN(c3ccc(C(=O)NC4CCC(=O)NC4=O)nc3)CC2)CC1 (stereo partly drawn) [Compound 66, 5-(4-((4-((S)-1-((2-((4aS,5aR)-5,5-difluoro-5a-methyl-1,4,4a,5,5a,6-hexahydrocyclopropa[f]indazol-3-yl)-1H-indol-6-yl)(methyl)amino)-1-oxopropan-2-yl)piperazin-1-yl)methyl)piperidin-1-yl)-N-(2,6-dioxopiperidin-3-yl)picolinamide]
6 | 283 | 3.5 |  | 42 | 1.26 | CN(C(=O)CCC1CCN(c2ccc(C(=O)NC3CCC(=O)NC3=O)nc2)C1)c1ccc2cc(-c3n[nH]c4c3C[C@@H]3C(F)(F)[C@]3(C)C4)[nH]c2c1 (stereo partly drawn) [Compound 69, 5-(3-(3-((2-((4aS,5aR)-5,5-difluoro-5a-methyl-1,4,4a,5,5a,6-hexahydrocyclopropa[f]indazol-3-yl)-1H-indol-6-yl)(methyl)amino)-3-oxopropyl)pyrrolidin-1-yl)-N-(2,6-dioxopiperidin-3-yl)picolinamide]
7 | 9 | 4 | 0.12 | 86 | 0.02 | CN(C(=O)CN1CCC2(CC1)CCN(c1ccc3c(c1)C(=O)N(C1CCC(=O)NC1=O)C3=O)C2)c1ccc2cc(-c3n[nH]c4c3C[C@@H]3C(F)(F)[C@]3(C)C4)[nH]c2c1 (stereo partly drawn) [Compound 72, N-(2-((4aS,5aR)-5,5-difluoro-5a-methyl-1,4,4a,5,5a,6-hexahydrocyclopropa[f]indazol-3-yl)-1H-indol-6-yl)-2-(2-(2-(2,6-dioxopiperidin-3-yl)-1,3-dioxoisoindolin-5-yl)-2,8-diazaspiro[4.5]decan-8-yl)-N-methylacetamide]
